Experimental findings from patent US9113629B2, “4-amino-6-(4-substituted-phenyl)-picolinates and 6-amino-2-(4-substituted-phenyl)-pyrimidine-4-carboxylates and their use as herbicides” (DOW AGROSCIENCES LLC, priority 2013, dated 2015) are described below.

What all share (assay): Post-emergent Test III, herbicidal activity in wheat and barley
Type in all cases: in vivo
Settings in all cases: Table 8, 21 d

Experiment [1] concerns CIRAR: Canada thistle (Cirsium arvense). An outline of the steps:
(§1)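 GR20, GR50, GR80 and GR90 come from probit analysis of visual injury scores (0 = none, 100 = complete kill) taken 21 d after treatment. Foliar application was by track sprayer delivering 187 L/ha at five rates, from high down to 1/16×, onto greenhouse plants at the 2–3 leaf stage, with solvent-blank controls.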

Experiment [2] deals with GALAP: cleavers (Galium aparine). An outline of the steps: as §1
For experiment [3], the system named is VIOSS: wild pansy (Viola tricolor), field violet (Viola arvensis). The procedure, abridged:
as §1

The subject of experiment [4] is SASKR: Russian thistle (Salsola iberica). An outline of the steps: as §1
[5] abbreviates: dose for 50 percent growth reduction, probit analysis.
Setting [6] is: dose for 80 percent growth reduction, probit analysis.

The structures appear in SMILES notation.

`COc1c(N)nc(-c2ccc(I)c(F)c2)nc1C(=O)O` [Compound 37, 6-Amino-2-(3-fluoro-4-iodophenyl)-5-methoxypyrimidine-4-carboxylic acid]: the pest or weed control at 35 g/ha lay in the range of 45 to 59% in experiment [1] (Cirsium arvense, post-emergence, 504 h, 35 g ai/ha, post-emergent, read-out: Visual Growth Reduction (%) 21 Days After Application CIRAR); 85 to 94% in experiment [2] (Galium aparine, post-emergence, 504 h, 35 g ai/ha, post-emergent, read-out: Visual Growth Reduction (%) 21 Days After Application GALAP); 75 to 84% in experiment [3] (Viola tricolor, post-emergence, 504 h, 35 g ai/ha, post-emergent, read-out: Visual Growth Reduction (%) 21 Days After Application VIOSS); 45 to 59% in experiment [4] (Salsola tragus, post-emergence, 504 h, 35 g ai/ha, post-emergent, read-out: Visual Growth Reduction (%) 21 Days After Application SASKR). For the same compound, the pest or weed control at 70 g/ha lay within 75 to 84% in experiment [1] (Cirsium arvense, post-emergence, 504 h, 70 g ai/ha, post-emergent, read-out: Visual Growth Reduction (%) 21 Days After Application CIRAR); 95 to 100% in experiment [2] (Galium aparine, post-emergence, 504 h, 70 g ai/ha, post-emergent, read-out: Visual Growth Reduction (%) 21 Days After Application GALAP); 85 to 94% in experiment [3] (Viola tricolor, post-emergence, 504 h, 70 g ai/ha, post-emergent, read-out: Visual Growth Reduction (%) 21 Days After Application VIOSS); 60 to 74% in experiment [4] (Salsola tragus, post-emergence, 504 h, 70 g ai/ha, post-emergent, read-out: Visual Growth Reduction (%) 21 Days After Application SASKR). Moreover, in experiment [1] (setting [5]), the “GR50 CIRAR” value turned out to be 23 g ai/ha. In addition, the “GR80 CIRAR” value in experiment [1] (setting [6]) is recorded as 103 g ai/ha. Further, the “GR50 GALAP” value in experiment [2] (setting [5]) came out at 14 g ai/ha. The “GR80 GALAP” value in experiment [2] (setting [6]) is 31 g ai/ha. In experiment [3] (setting [5]), the “GR50 VIOSS” value is 12 g ai/ha. Further, the “GR80 VIOSS” value in experiment [3] (setting [6]) came to 35 g ai/ha. Besides, in experiment [4] (setting [5]), the “GR50 SASKR” value is 33 g ai/ha. The “GR80 SASKR” value in experiment [4] (setting [6]) stood at 104 g ai/ha.
